Experiment: Thermogravimetric analysis under air
Format: physicochemical
Experimental: A thermogravimetric analysis under air of the compound 3a was also carried out after storage exposed to the air for 3 weeks.
By way of comparison, a thermogravimetric analysis of an imidazolium iodide not coming within the invention, namely 1,3-dimethylimidazolium iodide (DMII), was also carried out.
The results obtained are given in the appended FIGS. 1 and 2. FIG. 1 gives the results of the calorimetric analysis of the compound 3a. In this figure, the heat flux (in W/g) is a function of the temperature (in ° C.). FIG. 2 gives the results of the thermogravimetric analysis for the compound 3a (continuous line) in comparison with the DMII (noncontinuous line).
In comparison, DMII allows a loss in weight of the order of 30% originating from the water captured as a result of its hygroscopicity.

temperature up to which the compound is stable (thermogravimetric analysis under air) [°C] | Structure (SMILES) | hygroscopicity (after storage exposed to the air for 3 weeks) | loss in weight originating from captured water (hygroscopicity) (thermogravimetric analysis) [%]
300 | COC(=O)CCc1cn(C)c[n+]1C.[I-] [Compound 3a, 4-(3-methoxy-3-oxopropyl)-1,3-dimethyl-1H-imidazol-3-ium Iodide] | does not exhibit any hygroscopicity nature | 
 | Cn1cc[n+](C)c1.[I-] [DMII, 1,3-Dimethylimidazolium iodide, reference compound] |  | ~30

From patent US10475593B2, “Use of halogen derivatives of histidine as electrolytic salt in a photovoltaic dye cell” (CENTRE NATIONAL DE LA RECHERCHE SCIENTIFIQUE, priority 2014, dated 2019)
